Non-standard residues stand in square brackets, D forms with d. Residues, ends and D or L forms follow the SMILES beside them. *: point of attachment. Sta = CC(C)C[C@H](N)[C@@H](O)CC(=O)O; 3Amb = NCc1cccc(C(=O)O)c1; Nle = CCCC[C@H](N)C(=O)O; Nva = CCC[C@H](N)C(=O)O; X1 = O=C(C1CCCCO1)*
Molecular target: Beta-secretase 1 (Homo sapiens, UniProt P56817)
Experiment: Inhibition of human beta-secretase

Beta-secretase 1, sequence (P56817 whole entry): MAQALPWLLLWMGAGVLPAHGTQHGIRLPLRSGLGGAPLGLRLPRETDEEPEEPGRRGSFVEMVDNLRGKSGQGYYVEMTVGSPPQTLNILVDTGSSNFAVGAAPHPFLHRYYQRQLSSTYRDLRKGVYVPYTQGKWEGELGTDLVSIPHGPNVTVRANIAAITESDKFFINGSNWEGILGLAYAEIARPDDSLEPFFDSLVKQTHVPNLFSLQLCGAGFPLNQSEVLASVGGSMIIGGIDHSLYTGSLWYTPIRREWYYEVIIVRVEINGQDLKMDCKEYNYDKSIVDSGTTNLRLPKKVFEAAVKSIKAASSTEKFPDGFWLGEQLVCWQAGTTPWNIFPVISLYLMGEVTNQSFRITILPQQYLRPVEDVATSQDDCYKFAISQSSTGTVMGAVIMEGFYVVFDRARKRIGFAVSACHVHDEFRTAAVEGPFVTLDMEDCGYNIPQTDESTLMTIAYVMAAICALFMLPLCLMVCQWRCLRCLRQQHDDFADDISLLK

Row | IC50 | SMILES
1 | 520 nM | CC(=O)N[C@@H](CC(C)C)C(=O)N[C@@H](C)C(=O)N[C@@H](CC(C)C)[C@@H](O)CC(=O)N[C@H](C(=O)NCc1cccc(C(=O)O)c1)C(C)C
2 | 890 nM | CSCC[C@H](NC(=O)[C@H](CC(C)C)NC(C)=O)C(=O)N[C@@H](CC(C)C)[C@@H](O)CC(=O)N[C@H](C(=O)NCc1cccc(C(=O)O)c1)C(C)C
3 | > 91000 nM | CC[C@@H](C)[C@@H](NC(C)=O)C(=O)N[C@@H](C)C(=O)N[C@@H](CC(C)C)[C@@H](O)CC(=O)N[C@H](C(=O)NCc1cccc(C(=O)O)c1)C(C)C
4 | 250 nM | CC[C@H](C)[C@H](NC(C)=O)C(=O)N[C@@H](C)C(=O)N[C@@H](CC(C)C)[C@@H](O)CC(=O)N[C@H](C(=O)NCc1cccc(C(=O)O)c1)C(C)C
5 | > 91000 nM | CSCC[C@@H](NC(=O)[C@H](CC(C)C)NC(C)=O)C(=O)N[C@@H](CC(C)C)[C@@H](O)CC(=O)N[C@H](C(=O)NCc1cccc(C(=O)O)c1)C(C)C
6 | > 91000 nM | CC(=O)N[C@@H](CC(C)C)C(=O)N[C@H](C)C(=O)N[C@@H](CC(C)C)[C@@H](O)CC(=O)N[C@H](C(=O)NCc1cccc(C(=O)O)c1)C(C)C
7 | > 91000 nM | CSCC[C@H](NC(=O)[C@H](CC(C)C)NC(C)=O)C(=O)N[C@@H](CC(C)C)[C@@H](O)CC(=O)N[C@@H](C(=O)NCc1cccc(C(=O)O)c1)C(C)C
8 | 250 nM | CC[C@H](C)[C@H](NC(C)=O)C(=O)N[C@@H](C)C(=O)N[C@@H](CC(C)C)[C@@H](O)CC(=O)N[C@@H](Cc1ccccc1)C(=O)NCc1cccc(C(=O)O)c1 (Ac-IA[Sta]F[3Amb]-OH)
9 | 260 nM | CC[C@H](C)[C@H](NC(C)=O)C(=O)N[C@@H](C)C(=O)N[C@@H](CC(C)C)[C@@H](O)CC(=O)N[C@@H](CC(C)C)C(=O)NCc1cccc(C(=O)O)c1 (Ac-IA[Sta]L[3Amb]-OH)
10 | 110 nM | CC[C@H](C)[C@H](NC(C)=O)C(=O)N[C@@H](C)C(=O)N[C@@H](CC(C)C)[C@@H](O)CC(=O)N[C@@H](Cc1ccc(O)cc1)C(=O)NCc1cccc(C(=O)O)c1 (Ac-IA[Sta]Y[3Amb]-OH)
11 | 180 nM | CCCC[C@H](NC(=O)C[C@H](O)[C@H](CC(C)C)NC(=O)[C@H](C)NC(=O)[C@@H](NC(C)=O)[C@@H](C)CC)C(=O)NCc1cccc(C(=O)O)c1 (Ac-IA[Sta][Nle][3Amb]-OH)
12 | 140 nM | CC[C@H](C)[C@H](NC(C)=O)C(=O)N[C@@H](CCSC)C(=O)N[C@@H](CC(C)C)[C@@H](O)CC(=O)N[C@@H](Cc1ccccc1)C(=O)NCc1cccc(C(=O)O)c1 (Ac-IM[Sta]F[3Amb]-OH)
13 | 91 nM | CC[C@H](C)[C@H](NC(C)=O)C(=O)N[C@@H](CCSC)C(=O)N[C@@H](CC(C)C)[C@@H](O)CC(=O)N[C@@H](Cc1ccc(O)cc1)C(=O)NCc1cccc(C(=O)O)c1 (Ac-IM[Sta]Y[3Amb]-OH)
14 | 86 nM | CCCC[C@H](NC(=O)C[C@H](O)[C@H](CC(C)C)NC(=O)[C@H](CCSC)NC(=O)[C@@H](NC(C)=O)[C@@H](C)CC)C(=O)NCc1cccc(C(=O)O)c1 (Ac-IM[Sta][Nle][3Amb]-OH)
15 | 130 nM | CCC[C@H](NC(=O)C[C@H](O)[C@H](CC(C)C)NC(=O)[C@H](CCSC)NC(=O)[C@@H](NC(C)=O)[C@@H](C)CC)C(=O)NCc1cccc(C(=O)O)c1 (Ac-IM[Sta][Nva][3Amb]-OH)
16 | 3800 nM | CC(=O)N[C@H](C(=O)N[C@@H](C)C(=O)N[C@@H](CC(C)C)[C@@H](O)CC(=O)N[C@H](C(=O)NCc1cccc(C(=O)O)c1)C(C)C)C(C)C (Ac-VA[Sta]V[3Amb]-OH)
17 | 1400 nM | CCCC[C@H](NC(C)=O)C(=O)N[C@@H](C)C(=O)N[C@@H](CC(C)C)[C@@H](O)CC(=O)N[C@H](C(=O)NCc1cccc(C(=O)O)c1)C(C)C (Ac-[Nle]A[Sta]V[3Amb]-OH)
18 | 830 nM | CCC[C@H](NC(C)=O)C(=O)N[C@@H](C)C(=O)N[C@@H](CC(C)C)[C@@H](O)CC(=O)N[C@H](C(=O)NCc1cccc(C(=O)O)c1)C(C)C (Ac-[Nva]A[Sta]V[3Amb]-OH)
19 | 110 nM | CC(C)C[C@H](NC(=O)[C@H](C)NC(=O)[C@@H](NC(=O)[C@@H](N)CCC(=O)O)C(C)C)[C@@H](O)CC(=O)N[C@H](C(=O)N[C@@H](C)C(=O)N[C@@H](CCC(=O)O)C(=O)N[C@@H](Cc1ccccc1)C(=O)O)C(C)C (H-EVA[Sta]VAEF-OH)
20 | 220 nM | CC[C@H](C)[C@H](NC(=O)C[C@H](O)[C@H](CC(C)C)NC(=O)[C@H](CCSC)NC(=O)[C@@H](NC(=O)[C@@H](N)CCC(=O)O)C(C)C)C(=O)N[C@@H](C)C(=O)N[C@@H](CCC(=O)O)C(=O)N[C@@H](Cc1ccccc1)C(=O)O (H-EVM[Sta]IAEF-OH)
21 | 140 nM | CSCC[C@H](NC(=O)[C@@H](NC(=O)[C@@H](N)CCC(=O)O)C(C)C)C(=O)N[C@@H](CC(C)C)[C@@H](O)CC(=O)N[C@@H](CC(C)C)C(=O)N[C@@H](C)C(=O)N[C@@H](CCC(=O)O)C(=O)N[C@@H](Cc1ccccc1)C(=O)O (H-EVM[Sta]LAEF-OH)
22 | 58 nM | CSCC[C@H](NC(=O)[C@@H](NC(=O)[C@@H](N)CCC(=O)O)C(C)C)C(=O)N[C@@H](CC(C)C)[C@@H](O)CC(=O)N[C@H](C(=O)N[C@@H](C)C(=O)N[C@@H](CCC(=O)O)C(=O)N[C@@H](Cc1ccccc1)C(=O)O)C(C)C (H-EVM[Sta]VAEF-OH)
23 | > 91000 nM | CC(C)C[C@H](NC(=O)[C@H](CC(N)=O)NC(=O)[C@@H](NC(=O)[C@@H](N)CCC(=O)O)C(C)C)[C@@H](O)CC(N)=O (H-EVN[Sta]-NH2)
24 | 9400 nM | CC(C)C[C@H](NC(=O)[C@H](CC(N)=O)NC(=O)[C@@H](NC(=O)[C@@H](N)CCC(=O)O)C(C)C)[C@@H](O)CC(=O)N[C@H](C(N)=O)C(C)C (H-EVN[Sta]V-NH2)
25 | 530 nM | CC(C)C[C@H](NC(=O)[C@H](CC(N)=O)NC(=O)[C@@H](NC(=O)[C@@H](N)CCC(=O)O)C(C)C)[C@@H](O)CC(=O)N[C@H](C(=O)N[C@@H](C)C(N)=O)C(C)C (H-EVN[Sta]VA-NH2)
26 | 110 nM | CC(C)C[C@H](NC(=O)[C@H](CC(N)=O)NC(=O)[C@@H](NC(=O)[C@@H](N)CCC(=O)O)C(C)C)[C@@H](O)CC(=O)N[C@H](C(=O)N[C@@H](C)C(=O)N[C@@H](CCC(=O)O)C(N)=O)C(C)C (H-EVN[Sta]VAE-NH2)
27 | 46 nM | CC(C)C[C@H](NC(=O)[C@H](CC(N)=O)NC(=O)[C@@H](NC(=O)[C@@H](N)CCC(=O)O)C(C)C)[C@@H](O)CC(=O)N[C@H](C(=O)N[C@@H](C)C(=O)N[C@@H](CCC(=O)O)C(=O)N[C@@H](Cc1ccccc1)C(=O)O)C(C)C (H-EVN[Sta]VAEF-OH)
28 | > 91000 nM | CC(C)C[C@H](NC(=O)[C@@H](N)CC(N)=O)[C@@H](O)CC(=O)N[C@H](C(=O)N[C@@H](C)C(=O)N[C@@H](CCC(=O)O)C(=O)N[C@@H](Cc1ccccc1)C(=O)O)C(C)C (H-N[Sta]VAEF-OH)
29 | 2000 nM | CC(C)C[C@H](NC(=O)[C@H](CC(N)=O)NC(=O)[C@@H](N)C(C)C)[C@@H](O)CC(=O)N[C@H](C(=O)N[C@@H](C)C(=O)N[C@@H](CCC(=O)O)C(=O)N[C@@H](Cc1ccccc1)C(=O)O)C(C)C (H-VN[Sta]VAEF-OH)
30 | 69 nM | CC[C@H](C)[C@H](NC(=O)C1CCCCO1)C(=O)N[C@@H](C)C(=O)N[C@@H](CC(C)C)[C@@H](O)CC(=O)N[C@H](C(=O)NCc1cccc(C(=O)O)c1)C(C)C (stereo not given in full) (X1-IA[Sta]V[3Amb]-OH)

Source: ChEMBL document CHEMBL1145754, “Design and synthesis of statine-containing BACE inhibitors” (Bioorg Med Chem Lett, 2003)
